Read-outs that look alike come from different tables or passages of the source.
How the values were obtained:
α7 integrin promoter = test: muscle cell-based assay: α7βgal+/− myoblasts/myotubes, LacZ reporter, β-galactosidase cleavage of FDG; set-up: species or system mouse; settings: for EC50: read-out: EC50; for Result in α7+/− β-galactosidase assay: Myoblasts
Method in brief: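 Fluorescein generated from FDG by β-galactosidase reports α7 integrin promoter activity in differentiated myoblasts from α7+/− LacZ knock-in pups. Screening hits then went to dose-response, western blotting and a myostatin counterscreen.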

α7 integrin [1] = test: western analysis of α7 integrin in DMD myoblasts/myotubes; type: cell-based, human; settings: 2,2-dipyridyl 31.25 μM, deferoxamine 5 and 10 μM, 132 hrs
Procedure: (§1) FIGS. 13A-13D illustrate western blot studies in which protein extracts from C2C12 (A, B) and DMD (C, D) myoblasts were first treated with PBS or 100 nM LAM-111 and then subjected to western analysis of the α7B integrin and the Cox-1 loading standard. *=p<0.05.
Protein was extracted from the cells and subjected to western blotting using antibodies against α7 integrin. α-tubulin was used as a loading control.
(§2) It is contemplated that the identified parent scaffolds (Tables 8 and 9) increase α7 integrin expression through a similar mechanism.

Mdx/utr−/− mice = test: treatment of mdx/utr−/− mice; settings: mouse, in vivo
α7 integrin [2] = test: western analysis of α7 integrin in C2C12 myoblasts/myotubes; type: cell-based, mouse; settings: C2C12 myotubes
Procedure: as §1
Bands were quantified using Image J software and then graphed as α7 Integrin protein levels relative to GAPDH protein levels. * denotes a significant difference in relative protein levels with **p<0.01.
The ability of laminin to regulate α7 integrin expression, α7βgal^+/− myoblasts were exposed to 0-200 nM laminin-111 for 24 hours. The activity of the α7 integrin promoter was measured by β-galactosidase cleavage of the non-fluorescent compound fluorescein di-β-D-galactopyranoside (FDG) to fluorescein. […] The ability of laminin-111 to increase α7 integrin expression was confirmed by western analysis using mouse and human DMD muscle cells (FIGS. 2A-2D).
as §2

Row | Compound | Optimal Concentration (α7 integrin promoter) | EC50 (α7 integrin promoter) | α7 integrin protein (α7 integrin [1]) | Result in α7+/− β-galactosidase assay (α7 integrin promoter; 0.5 uM) | Result in α7+/− β-galactosidase assay (α7 integrin promoter; 1 uM) | Result in α7+/− β-galactosidase assay (α7 integrin promoter; 5 uM) | Result in α7+/− β-galactosidase assay (α7 integrin promoter; 10 uM) | Result in α7+/− β-galactosidase assay (α7 integrin promoter; 20 uM) | Result in α7+/− β-galactosidase assay (α7 integrin promoter; 40 uM) | also measured
1 | c1ccc(-c2ccccn2)nc1 [2,2-Dipyridyl, 2,2-dipyridyl, reference compound] | 125 μm | 62.5 µM | increased |  |  |  |  |  |  | 
2 | CC(C)CCC[C@@H](C)[C@H]1CC[C@H]2[C@@H]3CC(=O)[C@H]4C[C@@H](O)CC[C@]4(C)[C@H]3CC[C@]12C [5α-cholestan-3β-ol-6-one, reference compound] | 20 μm | 6 µM | increased |  |  |  |  |  |  | EC100 (α7 integrin promoter): 20 µM
3 | CCCC(CCC)C(=O)O [Valproic acid, valproic acid] |  |  |  |  |  |  |  |  |  | EC50 (α7 integrin promoter; Mus musculus, enhancement of α7 integrin expression in muscle cells): 500 µM; Optimal Concentration (α7 integrin promoter; enhancement of α7 integrin expression in muscle cells): 2 mM; Akt signaling pathway in muscle (Mdx/utr−/− mice): activation; fibrosis (Mdx/utr−/− mice): reduced fibrosis; mobility (Mdx/utr−/− mice): improved mobility; muscle disease (Mdx/utr−/− mice; listed as Valproic Acid): reduced muscle disease; muscle disease (Mdx/utr−/− mice; listed as valproic acid): reduced overall muscle disease; α7 integrin protein (α7 integrin [2]): increased
4 | Cc1[nH]c(/C=C2\C(=O)Nc3ccc([S+](=O)([O-])Cc4c(Cl)cccc4Cl)cc32)c(C)c1C(=O)C1CCCN1CN1CCCC1 (stereo not drawn) [drawing 725] |  |  |  | 0.05199 | 0.07607 | −0.1295 | −0.4121 | −0.9816 | −0.9806 | 
5 | O=C1Nc2ccccc2/C1=C1/Nc2ccccc2/C1=N\O [drawing 726] |  |  |  | 0.07252 | 0.1204 | −0.1537 | −0.432 | −0.6932 | −0.758 | 
